{
  "source": "patent US6232345A",
  "about": "“Cerebral function improving agents” (Shimizu Pharmaceutical Co., Ltd., priority 1995, dated 2001)",
  "key": {"[1]": {"test_system": "middle cerebral artery occlusion/reperfusion model", "assay": "Cerebral infarction reducing effect: middle cerebral artery occlusion/reperfusion model (Example 7)", "assay_type": "in vivo, male Wistar rats", "description": "Male Wistar rats aged 8 weeks (Charles River Japan, Inc.) were used in the study. […] They were fed a pellet diet (MF, Oriental Yeast Co., Ltd.) and tap water ad libitum.\nExactly 0.2 g of BHBNa was weighed and dissolved in distilled water for injection to make up a final volume of 10 ml. To 9 ml of this solution, physiological saline was added to make up 30 ml.\nUnder ether anesthesia, a midline incision was made in the neck. The incision reached the right carotid bifurcation while avoiding injury to the vagus nerve. Around the bifurcation, the common carotid artery and the external carotid artery were separated from surrounding connective tissue and adipose tissue. […] The external carotid artery was then double ligated with 5-0 silk and cut In addition, the right internal carotid artery was dissected out from the surrounding connective tissue to expose the pterygopalatine artery. The external carotid artery was incised, and an embolizing thread was inserted via this incision to a distance of 21 mm into the internal carotid artery. The tip of the thread went beyond the origin of the middle cerebral artery and entered the anterior cerebral artery by about 1-2 mm, so that the middle cerebral artery was occluded by the central portion of the thread.\nIn sham-operated rats, the skin incision was closed without inserting any embolizing thread into the internal carotid artery. The rats were then maintained until the scheduled time of sacrifice.\nAfter the middle cerebral artery was occluded with an embolizing thread for 2 hours, the thread was removed under ether anesthesia to allow reperfusion.\nImmediately after insertion of the embolizing thread, the rats were given a continuous infusion of physiological saline or 0.6% BHBNa solution via a cannula inserted into a femoral vein on the previous day. Administration was performed at a rate of 5 ml/kg/hr using an infusion pump and was continued until the scheduled time of sacrifice (24 hours after reperfusion).\nEach rat was sacrificed at 24 hours after reperfusion. The cerebrum was isolated, and cut into 2 mm coronal sections by using a Brain Slicer (MUROMACHI KIKAI Co., Ltd.) from a point 7 mm behind the edge of the forebrain to the interauricular line (telencephalon). The brain sections were stained to detect normal mitochondria by total immersion for 30 min in a 2% solution of 2,3,5-triphenyltetrazolium chloride (TTC) in physiological saline. […]\nPhotographs of the TTC-stained coronal sections of the cerebrum were scanned by using an film scanner and the data were processed with image analyzing software (NIH Image). The percent infarcted area (mitochondria death) on each cerebral section was calculated from the total area of the unstained regions relative to the entire area of the section."}, "[2]": {"test_system": "cerebral ischemia model (BLCL)", "assay": "Cerebral ATP and lactate levels in rats with BLCL (Example 6)", "assay_type": "in vivo, male Wistar rats", "source_text": "(§1) Rats were operated on under anesthesia which was introduced with ether and maintained by inhalation of a mixture of isoflurane/nitrous oxide/oxygen (0.5:70:30). A midline incision was made in the neck and the connective tissue was carefully dissected to avoid injury to the vagus nerve while exposing the bilateral common carotid arteries.\nFor test drug administration, the right external jugular vein was cannulated and the other end of the cannula was led out through the back of the animal. Then the common carotid artery was ligated at two points (head side and heart side) and severed between the two ligatures.\nThe level of significance was set at p<0.05."}, "[3]": {"test_system": "cerebral edema induced by ligation and severing of the bilateral common carotid arteries", "assay": "Cerebral edema suppressing effect: cerebral water content after ligation and severing of the bilateral common carotid arteries (Examples 1-3)", "assay_type": "in vivo, male Wistar rats", "source_text": "as §1\nFor test drug administration, the right external jugular vein was cannulated and the other end of the cannula was led out through the back of the animal. Then the common carotid artery was ligated at two points (head side and heart side) and severed between the two ligatures. […]\nIn sham-operated rats, the bilateral common carotid arteries were exposed in the same way and the skin incision was closed without arterial ligation and severing.\nOn completion of administration, each rat was decapitated, and the whole brain was isolated immediately. After removal of the cerebellum and the medulla oblongata, the wet weight of the cerebrum was measured. […] The cerebral water content was calculated by using the following formula:\nCerebral water content (%)=(wet weight of the cerebrum-dry weight of the cerebrum)/wet weight of the cerebrum×100. […]"}, "KCN-induced death": {"test_system": "KCN-induced death", "assay_type": "in vivo, male Wistar rats", "settings": "for survival time after KCN: KCN 3 mg/kg, mean ± S.E."}, "[4]": {"test_system": "bilateral common carotid artery ligation (BLCL)", "assay": "Cerebral metabolic activation: cerebral water and electrolyte content in rats with bilateral common carotid artery ligation (Example 5)", "assay_type": "in vivo, male Wistar rats", "settings": "25 mg/kg/hr i.v. infusion for 5 hours, n = 9, mean ± S.E.", "procedure": "Male Wistar rats purchased from Japan S.L.C., Ltd. were used after a 1-week acclimatization period. The animals were maintained at 23±2° C. and 55±10% humidity with lights on for 12 hours daily (from 7:00 to 19:00). They were fed a pellet diet (MF, Oriental Yeast Co., Ltd.) and tap water ad libitum. Their weight averaged 172.1±6.7 g at the time of the study.\nSodium β-hydroxybutyrate (BHBNa).\nThe dose of BHBNa tested was 25 mg/kg/hr. The test group was treated with a 20 mM BHBNa solution, while the control group received physiological saline. In both groups, administration was performed at a rate of 10 ml/kg/hr for 5 hours.\nRats were operated on under anesthesia which was introduced with ether and maintained by inhalation of a mixture of isoflurane/nitrous oxide/oxygen (0.5:70:30). A midline incision was made in the neck. The connective tissue was dissected carefully to avoid injury to the vagus nerves while exposing the bilateral common carotid arteries. The right external jugular vein was cannulated and the other end of the cannula was led out through the back. Each of the exposed common carotid arteries was ligated at two points (head side and heart side) and severed between the two ligatures. The skin incision was sutured and each rat was immediately given the test drug or physiological saline by continuous intravenous infusion using an infusion pump at a rate of 10 ml/kg/hr for 5 hours. In sham-operated rats, the bilateral common carotid arteries were exposed in the same way and the skin incision was closed without arterial ligation and severing. After completion of administration, each animal was sacrificed by decapitation and the whole brain was immediately isolated. After removal of the cerebellum and the medulla oblongata, the wet weight of the cerebrum was measured. The cerebrum was then dried at 105° C. for 24 hours and the dry weight was measured. The cerebral water content was calculated by using the following formula: […]\nData are expressed as the mean±standard error (S.E.). […]"}, "Wistar or SD rats [5]": {"test_system": "Wistar or SD rats", "assay": "2-week repeated dose toxicity study (Example 8)", "assay_type": "in vivo, male Wistar or SD rats", "settings": "500 mg/kg-2000 mg/kg, oral or intravenous, 2 weeks", "source_text": "(2) BHBNa was repeatedly administered orally or intravenously to male Wistar or SD rats for 2 weeks."}, "normal rats without BLCL": {"test_system": "normal rats without BLCL", "assay": "Cerebral ATP and lactate levels in normal rats without BLCL (Example 6)", "assay_type": "in vivo, male Wistar rats", "settings": "continuous infusion for 3 hours", "procedure": "Male Wistar rats (Japan S.L.C., Ltd.) were used in the study. The animals were maintained at 23±3° C. and 55±15% humidity with lights on for 12 hours daily (from 7:00 to 19:00). They were fed a pellet diet (MF, Oriental Yeast Co., Ltd.) and tap water ad libitum. Their weight ranged from 161.7 to 249.0 g at the time of the study.\nExactly 0.2 g of BHBNa was weighed and dissolved in distilled water for injection to make a final volume of 10 ml. To 9 ml of this solution, physiological saline was added to make up 30 ml. The 0.6% BHBNa solution thus obtained was sterilized by filtration through DISMIC-25CS ([…], ADVANTEC Toyo) prior to use.\nAfter 3 hours of cerebral ischemia, the head of each rat was irradiated with microwaves (5 kW) for 2 seconds using a microwave applicator (TMW6402C, Toshiba) to terminate all enzyme reactions and the production/degradation of metabolites in the brain tissue. […] The weight of the cerebrum was calculated from the difference of the weight of the test tube measured as above.\nThe cerebral ATP level was determined by an enzymatic method (the luciferin-luciferase method) by using Lumat LB9507 (EG&G BERTHOLD). The data obtained were expressed as μmoles/wet weight g.\nThe cerebral lactate level was determined by an enzymatic method (lactate dehydrogenase method) by using Determiner LA (Kyowa Medics). The data obtained were expressed as μmoles/wet weight g. […]"}, "Wistar or SD rats [6]": {"test_system": "Wistar or SD rats", "assay": "Single dose toxicity study (Example 8)", "assay_type": "in vivo, Wistar or SD rats of both sexes", "settings": "2000 mg/kg, oral or intravenous", "procedure": "(1) BHBNa was orally or intravenously administered to Wistar or SD rats of both sexes at a single dose of 2000 mg/kg."}, "[7]": {"assay": "Stability of test drug and prepared solutions", "assay_type": "physicochemical"}, "acute cerebral injury": {"test_system": "acute cerebral injury", "settings": "intravenous, after acute cerebral injury; cited from earlier work"}, "[8]": {"settings": "cited from earlier work"}},
  "note": "“And” between values parts separate entries of the source, which are not always exact repeats. Equal values may be shown once. Read-outs that look alike come from different tables or passages of the source.",
  "data": [
    {"smiles": "CC(O)CC(=O)[O-].[Na+]", "note": "(stereo not drawn)", "values": [
      {"measurement": "localization of infarct foci", "setting": "[1]; 30 mg/kg/hr continuous infusion", "value": "Most infarct foci were localized in the central ischemic zone and few extended to the surrounding regions"},
      {"measurement": "Infarction %", "setting": "[1]; 30 mg/kg/hr i.v. infusion from arterial occlusion (2 hours) to 24 hours after reperfusion, n = 4, saline 35.18±2.69%, listed as BHBNa", "value": "18.99% and 18.99 ±1.59%"},
      {"measurement": "cerebral ATP level", "setting": "[2]; 3 hours of BLCL, BHBNa 30 mg/kg/hr, mean±S.E., saline 0.52±0.10, sham 1.85±0.13", "value": "1.56±0.10", "unit": "μmoles/wet weight g"},
      {"measurement": "cerebral lactate level", "setting": "[2]; 3 hours of BLCL, BHBNa 30 mg/kg/hr, mean±S.E., saline 11.39±0.85, sham 0.61±0.12", "value": "1.36±0.17", "unit": "μmoles/wet weight g"},
      {"measurement": "relation of cerebral water content to dose", "setting": "[3]; FIG. 1, i.v. infusion for 5 hours", "value": "related to the dose"},
      {"measurement": "statistical significance of lower cerebral water content vs. physiological saline group", "setting": "[3]; by dose, i.v. infusion 10 ml/kg/hr for 5 hours", "value": "statistically significant (p<0.01) at doses of 5 mM or more"},
      {"measurement": "cerebral water content vs. physiological saline group", "setting": "[3]; sodium β-hydroxybutyrate 3.1-400 mg/kg/hr (2.5-320 mM, 10 ml/kg/hr) i.v. infusion for 5 hours, FIG. 1", "value": "lower than in the physiological saline group"},
      {"measurement": "survival time after KCN", "setting": "KCN-induced death; 50 mg/kg/hr for 1 hour i.v., saline 44.6±1.6 sec, FIG. 2", "value": "58.8 ± 2.4", "unit": "s"},
      {"measurement": "survival time after KCN", "setting": "KCN-induced death; 100 mg/kg/hr for 1 hour i.v. (duration comparison), FIG. 3", "value": "58.2 ± 2.2", "unit": "s"},
      {"measurement": "survival time after KCN", "setting": "KCN-induced death; 100 mg/kg/hr for 1 hour i.v., saline 44.6±1.6 sec, FIG. 2", "value": "58.8 ± 1.2", "unit": "s"},
      {"measurement": "survival time after KCN", "setting": "KCN-induced death; 100 mg/kg/hr for 3 hours i.v., FIG. 3", "value": "61.0 ± 1.6", "unit": "s"},
      {"measurement": "Cerebral water content", "setting": "[4]; P < 0.01 vs. physiological saline (81.96 ± 0.21)", "value": "79.50 ± 0.09", "unit": "%"},
      {"measurement": "Na^+ content", "setting": "[4]; cerebral, P < 0.01 vs. physiological saline (304.39 ± 12.83)", "value": "269.74 ± 15.98", "unit": "mEq/kg dry weight"},
      {"measurement": "K^+ content", "setting": "[4]; cerebral, physiological saline 405.99 ± 20.96, not significantly different", "value": "420.42 ± 5.76", "unit": "mEq/kg dry weight"},
      {"measurement": "repeated dose toxicity", "setting": "Wistar or SD rats [5]", "value": "survived without any abnormal findings"},
      {"measurement": "cerebral ATP level in normal rats", "setting": "normal rats without BLCL", "value": "no significant effect"},
      {"measurement": "cerebral lactate level in normal rats", "setting": "normal rats without BLCL", "value": "no significant effect"},
      {"measurement": "single dose toxicity", "setting": "Wistar or SD rats [6]", "value": "survived without any abnormal findings"},
      {"measurement": "stability of prepared solution", "setting": "[7]", "value": "at least 1 week"},
      {"measurement": "stability on storage", "setting": "[7]", "value": 5, "unit": "months"},
      {"measurement": "changes in quality of the lot used in the study", "setting": "[7]; tested after completion of the study", "value": "no changes in quality"}
    ]},
    {"smiles": "COC(=O)CC(C)O", "note": "(stereo not drawn) [methyl β-hydroxybutyrate]", "values": [
      {"measurement": "cerebral water content vs. physiological saline-treated group", "setting": "[3]; parenteral solution with methyl β-hydroxybutyrate 2.42 g/l, NaCl, KCl, glucose", "value": "lower than in the physiological saline-treated group"}
    ]},
    {"smiles": "CC(O)CC(=O)O", "note": "(stereo not drawn) [β-hydroxybutyric acid]", "values": [
      {"measurement": "extent of cerebral infarction (summary)", "setting": "[1]; administration during ligation of the middle cerebral artery and subsequent reperfusion", "value": "markedly reduced"},
      {"measurement": "cerebral ATP levels (summary)", "setting": "[2]; ligation of bilateral common carotid arteries", "value": "high cerebral ATP levels were maintained"},
      {"measurement": "increase in cerebral water content induced by BLCL for 6 hours", "setting": "[3]; at the doses tested in Example 4 (50 and 100 mg/kg/hr)", "value": "significantly suppressed"},
      {"measurement": "development of cerebral edema (summary)", "setting": "[3]; simultaneous intravenous administration, ligation of bilateral common carotid arteries", "value": "prevented the development of cerebral edema"},
      {"measurement": "survival time after lethal KCN (summary)", "setting": "KCN-induced death; intravenous pretreatment", "value": "prolonged the survival time"},
      {"measurement": "ketone level in the cerebrospinal fluid", "setting": "acute cerebral injury", "value": "increased"},
      {"measurement": "lactate level in the cerebrospinal fluid", "setting": "acute cerebral injury", "value": "decreased"},
      {"measurement": "water solubility", "setting": "[8]", "value": "water-soluble"}
    ]}
  ]
}
